Results on two compounds are retold here after ChEMBL document CHEMBL3763135, “Synthesis and evaluation of thiophene-based guanylhydrazones (iminoguanidines) efficient against panel of voriconazole-resistant fungal isolates” (Bioorg Med Chem, 2016).

Activity calls are given as the source filed them. Bounds are passed on as bounds.

Series [1] has as its system Trichophyton mentagrophytes. Nature of the series: Antifungal activity against Trichophyton mentagrophytes DMT4 by broth dilution method. It is filed as functional. Background: Dilution methods test growth across graded concentrations, often in twofold steps.
The subject of series [2] is Candida albicans. Put plainly: Antibiofilm activity against Candida albicans assessed as inhibition of Spider medium-induced hyphae formation at sub-MIC after 24 hrs by propidium iodide and FITC-conjugated concanavaline A staining based fluorescence microscopy. It is filed as functional, organism-based.
A further series deals with Aspergillus fumigatus. Put plainly: Antifungal activity against Aspergillus fumigatus ATCC 13073 by broth dilution method. The series is classed as functional.
Series [3] deals with Candida albicans. Nature of the series: Induction of DNA intercalation with Candida albicans genomic DNA at 25 ug/ml after 12 hrs by ethidium bromide staining based gel electrophoresis method.
The next series has as its system Microsporum canis. Put plainly: Antifungal activity against Microsporum canis DMT2 by broth dilution method. The series is classed as functional.
Another series relates to MRC5. Put plainly: Cytotoxicity against human MRC5 cells after 48 hrs by MTT assay. The series is classed as cell-based. To be noted: MRC5, 48 h. Background: Formazan colour is commonly taken as a measure of viable cells.
The test system of the next series is Fusarium oxysporum. Nature of the series: Antifungal activity against Fusarium oxysporum AB18 by broth dilution method. It is filed as functional.
Series [4] relates to Pichia kudriavzevii. Put plainly: Antifungal activity against Candida krusei ATCC 34135 by broth dilution method. The series is classed as functional.
Series [5] concerns Candida albicans. Nature of the series: Antibiofilm activity against Candida albicans ATCC 10231 assessed as disruption of preformed biofilm after 24 hrs by concanavalin A-FITC-staining based fluorescence microscopic analysis. It is filed as functional.
Series [6] in a line: Hemolytic effect in sheep RBC assessed as release of hemoglobin at 25 ug/ml after 1 hr. It is filed as ADME, cell-based, Ovis aries, Erythrocyte. To be noted: sheep red blood cells, read-out: Activity.
Series [7] concerns Candida parapsilosis. Put plainly: Antifungal activity against Candida parapsilosis C27 by broth dilution method. The series is classed as functional. Particulars: Lodderomyces parapsilosis.
Series [8] has as its system Candida albicans. Nature of the series: Antifungal activity against Candida albicans ATCC 10231 by broth dilution method. The series is classed as functional.
In series [9] the test system is Candida parapsilosis. Put plainly: Antibiofilm activity against Candida parapsilosis C27 assessed as disruption of preformed biofilm after 24 hrs by concanavalin A-FITC-staining based fluorescence microscopic analysis. The series is classed as functional.
Series [10] relates to Candida albicans. Put plainly: Antifungal activity against Candida albicans CA5 by broth dilution method. The series is classed as functional.
The test system of series [11] is Pichia kudriavzevii. Nature of the series: Antibiofilm activity against Pichia kudriavzevii ATCC 34135 assessed as disruption of preformed biofilm after 24 hrs by concanavalin A-FITC-staining based fluorescence microscopic analysis. It is filed as functional.
Series [12] is described as follows: Hemolytic effect in sheep RBC assessed as release of hemoglobin at 40 ug/ml after 1 hr. It is filed as ADME, cell-based, Ovis aries. Particulars: erythrocyte.

What is called MIC is the smallest concentration in the dilution series that meets the test's criterion for growth inhibition. Low readings indicate greater potency, high ones weaker potency. By IC50 is commonly meant the midpoint of a concentration-inhibition curve. Lower therefore signals higher potency. Consider `Cl.Cl.N=C(N)N/N=C/c1ccc(-c2ccncc2)s1`, for which the MIC in series [1] was 25 µg/mL; against Aspergillus fumigatus it was 250 µg/mL; in the series on Microsporum canis, 125 µg/mL; with Fusarium oxysporum, greater than 250 µg/mL; with Pichia kudriavzevii [4], greater than 250 µg/mL; in the series on Candida parapsilosis [7] it was greater than 250 µg/mL. Besides, the MIC worked out at 15.6 µg/mL with Candida albicans [8] and 125 µg/mL with Candida albicans [10]. Also, the outcome in the series on Candida albicans [2] and in the series with Candida albicans [3] was Active. In the series on MRC5, this compound displayed an IC50 of 25 µg/mL. Besides, the MBEC with Candida albicans [5] is 1000 µg/mL; with Candida parapsilosis [9], greater than 1000 µg/mL; with Pichia kudriavzevii [11] it was greater than 1000 µg/mL. Also, the hemolysis at 1 h, 25 ug/ml in series [6] is 20%.

On to NYSTATIN, for which the Activity in series [12] was 35%.
